{
  "source": "patent US6087493A",
  "about": "“Porphyrin compounds as telomerase inhibitors” (Regents of the University of Texas System, priority 1998, dated 2000)",
  "key": {"[1]": {"assay": "in vitro", "assay_type": "cell-based", "settings": "human, hs578bst cells; HS578 Bst, Thy (n = 3 ± SEM); read-out: Cytotoxicity", "method": "Cytotoxicity of the compounds to human breast cancer cells in vitro was assessed using a panel of cell lines representing estrogen receptor-positive (BT20, MCF-7m), and a pair of estrogen receptor-negative, transformed breast (11S578t) and normal breast (HS578Bst) cells.\nThy: tritiated […] assay (n = 3 ± SEM)"}, "[2]": {"test_system": "single-stranded sequence bearing four human telomeric repeats", "quoted_text": "The DNA was labeled with 32p at the 5'-end and stored in buffer (10 mM Tris-HCl, 1 mM EDTA, pH 8.0) at 3000 cpm/μl. For each photocleavage reaction, 10 μl of DNA (~5 ng) was mixed with 10 μl of 200 mM KCl, boiled for 10 min, and cooled to room temperature. For the control studies, 10 μl of distilled water was added instead of the KCl solution. The mixtures were transferred to a 96 well plate, 2 μl of 1 μM aqueous TMPyP4 solution added, and the samples exposed to a 24 W fluorescent day-light under a glass filter for various periods of time. The reactions were stopped with 100 μl of calf thymus DNA (0.1 μg/μl), and after phenol-chloroform extraction, the samples were subjected to strand breakage treatment and ethanol precipitation (Han and Hurley, 1996).\nA single-stranded sequence bearing four human telomeric repeats was treated with TMPyP4 and then exposed to light."}, "[3]": {"test_system": "MCF7 cells", "assay": "Nuclear localization of TMPyP4 in MCF7 cells", "assay_type": "cell-based, human", "method": "MCF7 cells were seeded at 5×10^5 cells per flask and cultured in the presence of 0, 50, or 100 μM TMPyP4 for 7 days with one exchange of medium. The cells were harvested with trypsin-EDTA, washed with PBS and counted using a Coulter counter. The cells were then pelleted by centrifugation at 700 g and lysed in a hypotonic solution (0.1×PBS);the resulting lysate was sedimented at 700 g for 10 min. The supernatant was removed and the pellet was dissolved in 0.5 ml of 2% SDS. Absorbance of the supernatants and pellet was measured at 423 nm. TMPyP4 diluted in 2% SDS containing 1 mg/ml salmon sperm DNA was used for the standard curve.\nSeveral reports indicate that porphyrins localize specifically in tumor tissue, although sites of subcellular localization may vary widely with porphyrin structure and net charge (De Paolis et al., 1985). […] To gain insight into the subcellular distribution of cationic porphyrins, the inventors have cultured MCF7 cells with 0, 50, or 100 μM TMPyP4 for 7 days."}, "[4]": {"test_system": "MCF-7", "assay": "Cytotoxicity (MTT) MCF-7", "assay_type": "cell-based, human", "settings": "Homo sapiens, MCF7; MCF-7 (breast), 4-7 days; read-out: IC 50 cytotoxicity", "method": "(§1) The cells were cultured in the presence of the porphyrins incubator for 4-7 days and then treated with 3-(4,5-dimethylthiazol-2-yl)-2,5-diphenyl-tetrazolium bromide (MTT). Formazan concentration was quantitated by absorbance at 570 nm."}, "[5]": {"test_system": "MCF7 human breast carcinoma cells (telomerase activity)", "assay": "Telomerase activity in intact MCF7 cells cultured with porphyrin", "assay_type": "cell-based", "settings": "1, 10 and 100 μM, days 4, 8 and 15", "method": "To determine the long-term effects of TMPyP4 on whole cells, MCF7 breast carcinoma cells were cultured in the continuous presence of 1, 10, and 100 μM TMPyP4. The porphyrin solution was freshly added to the medium from the concentrated stock at each passage of the cells (every 3-4 days). On days 4, 8, and 15, the cells were lysed and the telomerase activity was measured in the extracts.\nBreast cancer cells MCF-7m, BT20, HS578t and normal HS578Bst cells were grown in culture in T75 flasks (10^6 cells/flask). […] The cells were harvested and freeze-thawed and the extracts used to measure telomerase activity using the Dynabeads method."}, "[6]": {"test_system": "Daudi", "assay": "cells", "assay_type": "cell-based, human", "settings": "Homo sapiens; Daudi (lymphoma), 4-7 days; read-out: IC 50 cytotoxicity", "method": "as §1"}, "[7]": {"test_system": "MDA-231", "assay": "Cytotoxicity (MTT) MDA-231", "assay_type": "cell-based, human", "settings": "Homo sapiens, MDA-MB-231; MDA-231 (breast), 4-7 days; read-out: IC 50 cytotoxicity", "method": "as §1"}, "[8]": {"test_system": "DU145", "assay": "Cytotoxicity (MTT) DU145", "assay_type": "cell-based, human", "settings": "Homo sapiens, DU-145; DU145 (prostate), 4-7 days; read-out: IC 50 cytotoxicity", "method": "as §1"}, "[9]": {"test_system": "MX-1 mammary carcinoma", "settings": "for # CR's: n=20", "method": "A MX-1 human breast tumor adjuvant model employed nude mice (Harlan Sprague Dawley, Inc.). The mice were implanted s.c. by trocar with fragments of MX-1 mammary carcinomas harvested from S.C. growing MX-1 tumors in nude mice hosts. When tumors were approximately 5 mm×5 mm in size (about 10 days after inoculation), the animals received cytoxan at 200 mg/kg. After tumors regressed (fifteen days after cytoxan administration), the animals were pair-matched into groups of mice, each of which was eartagged and followed individually throughout the experiment. The i.p. daily administration of TMPyP4 at 10 and 20 mg/kg five times weekly, began the day the animals were pairmatched (Day 1). TMPyP4 20 mg/kg was administered for 47 days. At the 10 mg/kg dose, TMPyP4 was administered continuously to the end of the study.\nMice were weighed twice weekly and tumor measurements were taken by calipers twice weekly, starting on Day 1. These tumor measurements were converted to mg tumor weight by a well-known formula, and from these calculated tumor weights, the termination date for each individual mouse was determined. Mice were euthanized when their tumors reached approximately 2 grams. Time to tumor recurrence and survival were monitored during the study."}, "[10]": {"test_system": "HeLa cells", "assay": "Chromosome fusion in HeLa cells", "assay_type": "cell-based, human", "settings": "3 μM, 2-4 days"}, "[11]": {"settings": "mice; cited from earlier work"}, "[12]": {"test_system": "MCF7 cells", "assay": "Cell cycle analysis in MCF7 cells", "assay_type": "cell-based, human", "quoted_text": "The effects of TMPyP4 on the cell cycle were assessed by flow cytometry by measuring the percentage of cells in G1/G0, S, and G2/M phases, with and without treatment with the porphyrin. Cells were stained with 50 μg/ml propidium iodide in a hypotonic sodium citrate solution with 0.3% NP-40 and 1.0 mg/ml RNase-A at 1.0×10^6 cells/ml, vortexed and stained for 30 min at room temperature in the dark. Prior to flow cytometric measurements, samples were filtered through a 37 μm nylon mesh into 12×75 mm tubes and stored at 4° C. until analysis within 24 h. All samples were analyzed with an EPICS ELITE flow cytometer (Coulter Cytometry, Miami, Fla.) using a 15 m Watt argon ion laser operated at 6 Amps of power at 488 nm for fluorochrome excitation. Photomultiplier tube voltage was adjusted for each control sample to position the G0G1 to channel 240 on a 1024 channel presentation. The propidium iodide emission was collected through a 675 nm long pass filter. Histograms were analyzed for cell cycle compartments using MultiCycle-PLUS Version 3.0 (Phoenix Flow Systems, San Diego, Calif.). Histograms all had 50K events collected to maximize the statistical validity of the compartmental analysis.\nThe inventors examined whether the treatment of MCF7 cells with TMPyP4 affected the cell cycle."}, "[13]": {"test_system": "BT-20", "assay": "Cytotoxicity (MTT) BT-20", "assay_type": "cell-based, human", "settings": "Homo sapiens; BT-20 (breast), 4-7 days; read-out: IC 50 cytotoxicity", "method": "as §1"}, "[14]": {"assay": "Cytotoxicity (MTT) NHLF normal lung fibroblasts", "assay_type": "cell-based", "settings": "human, nhlf cells; NHLF (normal), 4-7 days; read-out: IC 50 cytotoxicity", "method": "as §1\nAll porphyrins were obtained from Midcentury, Posen, Ill. The experimental work with porphyrins was performed under minimum exposure to light. All human tumor cell lines and normal human breast cells Hs578Bst were purchased from the American Type Culture Collection. Normal human lung fibroblasts NHLF were obtained from Clonetics Corporation. The cell lines were grown according to the suppliers' instructions."}},
  "note": "Read-outs that look alike come from different tables or passages of the source.",
  "data": [
    {"smiles": "C[n+]1ccc(-c2c3nc(c(-c4cc[n+](C)cc4)c4ccc([nH]4)c(-c4cc[n+](C)cc4)c4nc(c(-c5cc[n+](C)cc5)c5ccc2[nH]5)C=C4)C=C3)cc1", "note": "[TMPyP4, 5,10,15,20-tetra-(N-methyl-4-pyridyl)porphine]", "values": [
      {"measurement": "CC50", "setting": "[1]", "result": "> 100", "unit": "µM"},
      {"measurement": "photocleavage selectivity", "setting": "[2]", "result": "clear selectivity for cleavage at the 5'-ApG-3' step at G1 and G7, and 5'-GpT-3' step at G6 and G12"},
      {"measurement": "cytoplasm as % of nuclear fraction concentration", "setting": "[3]; 50 μM TMPyP4, 7 days", "result": 3.3, "unit": "%"},
      {"measurement": "porphyrin concentration in the nuclear pellet", "setting": "[3]; 50 μM TMPyP4, 7 days", "result": 1.39, "unit": "nmoles/10^6 cells"},
      {"measurement": "porphyrin in cytoplasm", "setting": "[3]; 50 μM TMPyP4, 7 days", "result": 47.3, "unit": "pmoles/10^6 cells"},
      {"measurement": "cytoplasm as % of nuclear pellet concentration", "setting": "[3]; 100 μM TMPyP4, 7 days", "result": 5.5, "unit": "%"},
      {"measurement": "porphyrin concentration in the nuclear fraction", "setting": "[3]; 100 μM TMPyP4, 7 days", "result": 7.81, "unit": "nmoles/10^6 cells"},
      {"measurement": "porphyrin in cytoplasmic fraction", "setting": "[3]; 100 μM TMPyP4, 7 days", "result": 434, "unit": "pmoles/10^6 cells"},
      {"measurement": "calculated concentration in the nucleus", "setting": "[3]; assuming nucleus 1/100 of cell volume", "result": "1.4 to 78", "unit": "mM"},
      {"measurement": "calculated concentration in the cytoplasm", "setting": "[3]; assuming volume of 10^6 cells 10-100 μl", "result": "0.47 to 434", "unit": "µM"},
      {"measurement": "IC50", "setting": "[4]", "result": 49.6, "unit": "µM"},
      {"measurement": "telomerase activity in intact MCF7 cells", "setting": "[5]", "result": "clear concentration-dependent loss of telomerase activity"},
      {"measurement": "telomerase activity in intact MCF7 cells", "setting": "[5]; listed as tetra(N-methyl-4-pyridyl)porphyrin", "result": "telomerase activity is reduced relative to control cells"},
      {"measurement": "IC50", "setting": "[6]", "result": 3.1, "unit": "µM"},
      {"measurement": "IC50", "setting": "[7]", "result": 44, "unit": "µM"},
      {"measurement": "IC50", "setting": "[8]", "result": 93.6, "unit": "µM"},
      {"measurement": "# PS Remaining", "setting": "[9]; 10 mg/kg", "result": 0},
      {"measurement": "# Partial Shrinkage", "setting": "[9]; 10 mg/kg", "result": 2},
      {"measurement": "# Recur at 2 g", "setting": "[9]; 10 mg/kg", "result": 6},
      {"measurement": "# Remaining w/Tumors", "setting": "[9]; 10 mg/kg", "result": 1},
      {"measurement": "# of Recur", "setting": "[9]; 10 mg/kg", "result": 8},
      {"measurement": "# of Survivors", "setting": "[9]; 10 mg/kg", "result": 11},
      {"measurement": "# of Toxic Deaths", "setting": "[9]; 10 mg/kg", "result": 1},
      {"measurement": "% CR's", "setting": "[9]; 10 mg/kg", "result": 90, "unit": "%"},
      {"measurement": "Avg Day of Recur", "setting": "[9]; 10 mg/kg", "result": 25, "unit": "days"},
      {"measurement": "MDS", "setting": "[9]; 10 mg/kg", "result": 55},
      {"measurement": "MDS-Partial Shrinkages", "setting": "[9]; 10 mg/kg", "result": 36.0},
      {"measurement": "Mean Tumor Wt.", "setting": "[9]; 10 mg/kg", "result": 11.52, "unit": "mg"},
      {"measurement": "# CR's", "setting": "[9]; 10 mg/kg i.p. daily five times weekly", "result": 18},
      {"measurement": "# PS Remaining", "setting": "[9]; 20 mg/kg", "result": 0},
      {"measurement": "# Partial Shrinkage", "setting": "[9]; 20 mg/kg", "result": 5},
      {"measurement": "# Recur at 2 g", "setting": "[9]; 20 mg/kg", "result": 8},
      {"measurement": "# Remaining w/Tumors", "setting": "[9]; 20 mg/kg", "result": 0},
      {"measurement": "# of Recur", "setting": "[9]; 20 mg/kg", "result": 9},
      {"measurement": "# of Survivors", "setting": "[9]; 20 mg/kg", "result": 6},
      {"measurement": "# of Toxic Deaths", "setting": "[9]; 20 mg/kg", "result": 1},
      {"measurement": "% CR's", "setting": "[9]; 20 mg/kg", "result": 75, "unit": "%"},
      {"measurement": "Avg Day of Recur", "setting": "[9]; 20 mg/kg", "result": 19.33, "unit": "days"},
      {"measurement": "MDS", "setting": "[9]; 20 mg/kg", "result": 67.4},
      {"measurement": "MDS-Partial Shrinkages", "setting": "[9]; 20 mg/kg", "result": 44.6},
      {"measurement": "# CR's", "setting": "[9]; 20 mg/kg i.p. daily five times weekly", "result": 15},
      {"measurement": "fused chromosomes", "setting": "[10]", "result": "number of fused chromosomes was increased in comparison with the untreated controls"},
      {"measurement": "accumulation in tumor tissue", "setting": "[11]", "result": "accumulation in tumor tissue in mice"},
      {"measurement": "G2/M phase fraction", "setting": "[12]; 100 μM, days 4, 8 and 15", "result": "time-dependent gradual increase in the G2/M phase"},
      {"measurement": "MCF7 cells arrested in G2/M", "setting": "[12]; long-term exposure", "result": "not more than 32%"},
      {"measurement": "IC50", "setting": "[13]", "result": 106, "unit": "µM"},
      {"measurement": "CC50", "setting": "[14]", "result": 13.5, "unit": "µM"}
    ]}
  ]
}
